# From US9212163B2, “Pesticidal compositions and processes related thereto” (Dow AgroSciences LLC, priority 2012, dated 2015)
# System: Beet Armyworm (BAW) (Spodoptera exigua)
# Experiment: Bioassay on Beet Armyworm (BAW), 128-well diet tray assay
# Type: in vivo
# Conditions: Table 3: Assay Results Part 1
# Description: Certain molecules disclosed in this document were tested against BAW, CEW and CL using procedures described in the following examples. In the reporting of the results, the “BAW & CEW & CL Rating Table” was used (See Table Section).
# Bioassays on BAW (Spodoptera exigua)
# Bioassays on BAW were conducted using a 128-well diet tray assay. One to five second instar BAW larvae were placed in each well (3 mL) of the diet tray that had been previously filled with 1 mL of artificial diet to which 50 μg/cm^2 of the test compound (dissolved in 50 μL of 90:10 acetone-water mixture) had been applied (to each of eight wells) and then allowed to dry. Trays were covered with a clear self-adhesive cover, and held at 25° C., 14:10 light-dark for five to seven days. Percent mortality was recorded for the larvae in each well; activity in the eight wells was then averaged. The results are indicated in the tables entitled “Table 3: Assay Results Part 1” and “Table 4: Assay Results Part 2” (See Table Section).
row,Structure (SMILES),BAW Rating
1,"O=C(NC1CS(=O)(=O)C1)c1ccc(/C=C/C(c2cc(Cl)cc(Cl)c2)C(F)(F)F)cc1F (stereo not shown) [AC83, (E)-4-(3-(3,5-Dichlorophenyl)-4,4,4-trifluorobut-1-en-1-yl)-N-(1,1-dioxidothietan-3-yl)-2-fluorobenzamide]",A (50-100)
2,O=C(NC1CS(=O)(=O)C1)c1ccc(/C=C/C(c2cc(Cl)c(F)c(Cl)c2)C(F)(F)F)cc1F (stereo not shown) [AC84],A (50-100)
3,COc1cc(/C=C/C(c2cc(Cl)c(F)c(Cl)c2)C(F)(F)F)ccc1C(=O)NC1CS(=O)(=O)C1 (stereo not shown) [AC85],A (50-100)
4,CCc1cc(/C=C/C(c2cc(Cl)c(F)c(Cl)c2)C(F)(F)F)ccc1C(=O)NC1CS(=O)(=O)C1 (stereo not shown) [AC86],A (50-100)
5,O=C(NC1C[S+]([O-])C1)c1ccc(/C=C/C(c2cc(Cl)c(F)c(Cl)c2)C(F)(F)F)cc1F (stereo not shown) [AC87],A (50-100)
6,"Cc1cc(/C=C/C(c2cc(Cl)cc(Cl)c2)C(F)(F)F)ccc1C(=O)NCc1nnc(C2CC2)o1 (stereo not shown) [AC89, (E)-N-((5-Cyclopropyl-1,3,4-oxadiazol-2-yl)methyl)-4-(3-(3,5-dichlorophenyl)-4,4,4-trifluorobut-1-en-1-yl)-2-methylbenzamide]",A (50-100)
7,"FC(F)(F)CNC(=S)CNC(=S)c1ccc(/C=C/C(c2cc(Cl)c(Cl)c(Cl)c2)C(F)(F)F)cc1Br (stereo not shown) [AC90, (E)-2-Bromo-N-(2-thioxo-2-((2,2,2-trifluoroethyl)amino)ethyl)-4-(4,4,4-trifluoro-3-(3,4,5-trichlorophenyl)but-1-en-1-yl)benzothioamide]",A (50-100)
8,"O=C(CNC(=S)c1ccc(/C=C/C(c2cc(Cl)c(Cl)c(Cl)c2)C(F)(F)F)cc1Br)NCC(F)(F)F (stereo not shown) [AC91, (E)-2-(2-Bromo-4-(4,4,4-trifluoro-3-(3,4,5-trichlorophenyl)but-1-en-1-yl)phenylthioamido)-N-(2,2,2-trifluoroethyl)acetamide]",A (50-100)
9,"O=C(NCC(=S)NCC(F)(F)F)c1ccc(/C=C/C(c2cc(Cl)c(Cl)c(Cl)c2)C(F)(F)F)cc1Br (stereo not shown) [AC92, (E)-2-Bromo-N-(2-thioxo-2-((2,2,2-trifluoroethyl)amino)ethyl)-4-(4,4,4-trifluoro-3-(3,4,5-trichlorophenyl)but-1-en-1-yl)benzamide]",A (50-100)
10,Cc1cc(/C=C\C(c2cc(Cl)cc(Cl)c2)C(F)(F)F)ccc1C(=O)NCC(=O)NC1CC1 (stereo not shown) [AC93],A (50-100)
11,"O=C(CNC(=O)c1ccc(/C=C\C(c2cc(Cl)c(Cl)c(Cl)c2)C(F)(F)F)cc1Br)NCC(F)(F)F (stereo not shown) [AC95, (Z)-2-Bromo-N-(2-oxo-2-((2,2,2-trifluoroethyl)amino)ethyl)-4-(4,4,4-trifluoro-3-(3,4,5-trichlorophenyl)but-1-en-1-yl)benzamide]",A (50-100)
12,O=C(CNC(=O)c1ccc(/C=C/C(c2cc(Cl)c(F)c(Cl)c2)C(F)(F)F)cc1[N+](=O)[O-])NCC(F)(F)F (stereo not shown) [AC98],A (50-100)
13,O=C(CNC(=O)c1ccc(/C=C/C(c2ccc(F)c(Cl)c2)C(F)(F)F)cc1Br)NCC(F)(F)F (stereo not shown) [AC99],A (50-100)
14,"CC(=O)N1CCC(NC(=O)c2ccc(/C=C/C(c3cc(Cl)c(Cl)c(Cl)c3)C(F)(F)F)cc2Br)CC1 (stereo not shown) [AC103, (E)-N-(1-Acetylpiperidin-4-yl)-2-bromo-4-(4,4,4-trifluoro-3-(3,4,5-trichlorophenyl)but-1-en-1-yl)benzamide]",A (50-100)
15,"O=C(NC1CCN(C(=O)CC(F)(F)F)CC1)c1ccc(/C=C/C(c2cc(Cl)c(Cl)c(Cl)c2)C(F)(F)F)cc1Br (stereo not shown) [AC104, (E)-2-Bromo-4-(4,4,4-trifluoro-3-(3,4,5-trichlorophenyl)but-1-en-1-yl)-N-(1-(3,3,3-trifluoropropanoyl)piperidin-4-yl)benzamide]",A (50-100)
16,"CN1CCC(NC(=O)c2ccc(/C=C/C(c3cc(Cl)c(Cl)c(Cl)c3)C(F)(F)F)cc2Br)CC1 (stereo not shown) [AC106, (E)-2-Bromo-N-(1-methylpiperidin-4-yl)-4-(4,4,4-trifluoro-3-(3,4,5-trichlorophenyl)but-1-en-1-yl)benzamide]",A (50-100)

row,Structure (SMILES),BAW Rating
1,N#CCN1CCC(NC(=O)c2ccc(/C=C/C(c3cc(Cl)c(Cl)c(Cl)c3)C(F)(F)F)cc2Br)CC1 (stereo not shown) [AC107],B (More than 0-Less than 50)
2,"O=C(NC1CCN(C2COC2)CC1)c1ccc(/C=C/C(c2cc(Cl)c(Cl)c(Cl)c2)C(F)(F)F)cc1Br (stereo not shown) [AC108, (E)-2-Bromo-N-(1-(oxetan-3-yl)piperidin-4-yl)-4-(4,4,4-trifluoro-3-(3,4,5-trichlorophenyl)but-1-en-1-yl)benzamide]",B (More than 0-Less than 50)
3,CONC(=O)CNC(=O)c1ccc(/C=C/C(c2cc(Cl)c(Cl)c(Cl)c2)C(F)(F)F)cc1Br (stereo not shown) [AC110],A (50-100)
4,C=CCNC(=O)CNC(=O)c1ccc(/C=C/C(c2cc(Cl)c(Cl)c(Cl)c2)C(F)(F)F)cc1Br (stereo not shown) [AC111],A (50-100)
5,O=C(NCCc1ccc(Cl)nc1)c1ccc(/C=C/C(c2cc(Cl)c(Cl)c(Cl)c2)C(F)(F)F)cc1Br (stereo not shown) [AC113],B (More than 0-Less than 50)
6,"O=C(NC1CCNCC1)c1ccc(/C=C/C(c2cc(Cl)c(Cl)c(Cl)c2)C(F)(F)F)cc1Br (stereo not shown) [AC114, (E)-2-Bromo-N-(piperidin-4-yl)-4-(4,4,4-trifluoro-3-(3,4,5-trichlorophenyl)but-1-en-1-yl)benzamide]",A (50-100)
7,"Cc1cc(/C=C/C(c2cc(Cl)cc(Cl)c2)C(F)(F)F)ccc1C(=S)NCc1ccc(Cl)nc1 (stereo not shown) [AC115, (E)-N-((6-Chloropyridin-3-yl)methyl)-4-(3-(3,5-dichlorophenyl)-4,4,4-trifluorobut-1-en-1-yl)-2-methylbenzothioamide]",A (50-100)
8,Cc1cc(/C=C/C(c2cc(Cl)cc(Cl)c2)C(F)(F)F)ccc1C(=O)N(C)Cc1ccc(Cl)nc1 (stereo not shown) [AC117],A (50-100)
9,Cc1cc(/C=C/C(c2cc(Cl)cc(Cl)c2)C(F)(F)F)ccc1C(=O)NCC1CCCO1 (stereo not shown) [AC118],A (50-100)
10,O=C(CC(F)(F)F)NC1CCCc2cc(/C=C/C(c3cc(Cl)c(Cl)c(Cl)c3)C(F)(F)F)ccc21 (stereo not shown) [BC5],A (50-100)
11,O=C(NC1CCc2cc(/C=C/C(c3cc(Cl)c(Cl)c(Cl)c3)C(F)(F)F)ccc21)C1CC1 (stereo not shown) [BC6],A (50-100)
12,O=C(NC1CCCc2cc(/C=C/C(c3cc(Cl)c(Cl)c(Cl)c3)C(F)(F)F)ccc21)C1CC1 (stereo not shown) [BC7],A (50-100)
13,O=C(CC(F)(F)F)NC1CCc2cc(/C=C/C(c3cc(Cl)c(F)c(Cl)c3)C(F)(F)F)ccc21 (stereo not shown) [BC8],A (50-100)
14,O=C(Cc1ccc(Cl)nc1)NC1CCc2cc(/C=C/C(c3cc(Cl)c(F)c(Cl)c3)C(F)(F)F)ccc21 (stereo not shown) [BC9],A (50-100)
15,"Fc1c(Cl)cc(C(/C=C/c2ccc3c(c2)CCC3NCCC(F)(F)F)C(F)(F)F)cc1Cl (stereo not shown) [BC10, (E)-5-(3-(3,5-Dichloro-4-fluorophenyl)-4,4,4-trifluorobut-1-en-1-yl)-N-(3,3,3-trifluoropropyl)-2,3-dihydro-1H-inden-1-amine]",A (50-100)
